{"source": "patent US20230117252A1", "about": "“CELL SHEET HAVING FIBROSIS INHIBITORY ACTION” (NATIONAL UNIVERSITY CORPORATION TOTTORI UNIVERSITY, priority 2017, published 2023)", "key": {"[1]": {"test_system": "MMP-1", "assay": "MMP-1 activity of trypsin-treated cell suspension and cell sheet at different seeding densities (Example 1)", "format": "cell-based", "conditions": "for MMP1 average: UE7T-13 cells", "protocol": "(§1) In the present disclosure, the MMP activity can be determined by measuring the enzyme activity using a fluorescence resonance energy transfer (FRET) peptide that generates fluorescence upon cleavage by MMP.\n(§2) After four days, the temperature-responsive culture dishes were moved into a 32° C., 5% CO2 incubator, and sheets were made. The cell sheets obtained were washed three times with PBS, then homogenized in the buffer of an MMP activity measurement kit (SensoLyte® 520 MMP-1 Assay Kit Fluorimetric, (ANASPEC Co.: Cat #: AS-71150) and SensoLyte® 520 MMP-14 Assay Kit Fluorimetric (ANASPEC Co.: Cat #AS72025)). The cells seeded in the ordinary cell culture dishes were dispersed in 0.025% trypsin/0.1 mM EDTA, recovered by centrifugation, then washed three times with PBS and homogenized in the buffer for the MMP activity measurement. The results in FIG. 1 show the results on MMP-1 (FIG. 1A) and MMP-14 (FIG. 1B) per cell. […] It was a surprising result that the MMP-1 activity per cell was increased by increasing the seeding density."}, "[2]": {"test_system": "MMP-14", "assay": "MMP-14 activity of trypsin-treated cell suspension and cell sheet at different seeding densities (Example 1)", "format": "cell-based", "conditions": "for MMP14 average: UE7T-13 cells", "from_the_text": "as §1\nas §2, with “Bone marrow-derived mesenchymal stem cells (UE7T-13 cell line) were suspended in DMED/10% FBS and seeded to make respective seeded cell densities of 3.6×10^4 cells/cm^2, 5.4×10^4 cells/cm^2, and 7.2×10^4 cells/cm^2 in temperature-responsive culture dishes and ordinary cell culture dishes. After” for “After”"}, "[3]": {"conditions": "seeding density 1.8 × 10^4 cells/cm^2, per cell"}, "[4]": {"conditions": "seeding density 3.6 × 10^4 cells/cm^2, per cell"}, "[5]": {"conditions": "seeding density 5.4 × 10^4 cells/cm^2, per cell"}, "[6]": {"conditions": "seeding density 7.2 × 10^4 cells/cm^2, per cell"}}, "data": [{"substance": "Trypsin", "values": [{"measurement": "increase of MMP activity when the seeding density was increased four-fold", "setting": "[1]; Example 1, MMP-1 and MMP-14 together", "result": "about four-fold"}, {"measurement": "increase of MMP-1 activity when the seeding density was increased four-fold", "setting": "[1]; FIG. 1A", "result": "about four-fold"}, {"measurement": "MMP1 average", "setting": "[1]; [3]", "result": 103548.8}, {"measurement": "MMP1 average", "setting": "[1]; [4]", "result": 242642.7}, {"measurement": "MMP1 average", "setting": "[1]; [5]", "result": 326635.6}, {"measurement": "MMP1 average", "setting": "[1]; [6]", "result": 462976}, {"measurement": "increase of MMP-14 activity when the seeding density was increased four-fold", "setting": "[2]; FIG. 1B", "result": "about four-fold"}, {"measurement": "MMP14 average", "setting": "[2]; [3]", "result": 156184.1}, {"measurement": "MMP14 average", "setting": "[2]; [4]", "result": 353634.5}, {"measurement": "MMP14 average", "setting": "[2]; [5]", "result": 427591.6}, {"measurement": "MMP14 average", "setting": "[2]; [6]", "result": 576164}]}]}
